Laboratory results: US8586125B2, “Thermal treatment of an implantable medical device” (Advanced Cardiovascular Systems, Inc., priority 1999, dated 2013)
pIC50: −log10 of the molar value. Where “and” joins values, the source holds several entries; their conditions need not be identical. Equal values may be shown once. Read-outs that look alike come from different tables or passages of the source. Starred links: 1 amine or outer side, 2 acyl side, 3 side chain; linkers in the order of their positions; H or OH if unused. Positions of bridges follow the written chain, without caps; N, C: chain ends. Non-standard residues stand in square brackets, D forms with d. Residues, ends and D or L forms follow the SMILES beside them. Chains are numbered I, II in the order given. Actinocin(9to1) = Cc1c2oc3c(C)ccc(C(=O)[*:1])c3nc-2c(C(=O)[*:2])c(N)c1=O; NMeV = CN[C@H](C(=O)O)C(C)C; Sar = CNCC(=O)O

How the values were obtained:
[1] = tested on: Medial smooth muscle cells (SMC); assay: Inhibition of SMC proliferation, thymidine incorporation; type: cell-based; conditions: Rattus norvegicus, read-out: IC50 (concentration at which 50% of the cells stop proliferating)
Experimental: Medial smooth muscle cells (SMC) were isolated from rat aorta and cultured according to explant methods known to one of ordinary skill in the art. Cells were harvested via trypsinization and subcultivated. Cells were identified as vascular SMC through their characteristic hill-and-valley growth pattern as well as indirect immunofluorescence with monoclonal anti SMC α-actin. Studies were performed with cells at passage 3-4. SMC monolayers were established on 24 well culture dishes, scrape wounded and treated with actinomycin D, mytomycin and docetaxel. The cells were exposed to the drug solution of different concentrations for 2 hours and then washed with buffered saline solution. The proliferation of the cells was quantified by standard technique of thymidine incorporation.
The IC50 (concentration at which 50% of the cells stop proliferating) of actimomycin D was 10^−9M as compared to 5×10^−5M for mitomycin and 10^−6M for docetaxel.

[2] = tested on: Porcine Coronary Artery Model; assay: Reduction in restenosis in the porcine coronary artery model, drug delivered with microporous balloon catheter; type: in vivo, Domestic swine; conditions: for Percent Diameter Stenosis (QCA): 28-day endpoint; for Percent Stenosis (IEL area-lumen area)/IEL area / Residual Lumen (Lumen area)/IEL area: histomorphometric
Experimental: Porcine coronary models were used to assess the degree of the inhibition of neointimal formation in the coronary arteries of a porcine stent injury model by actinomycin D, delivered with a microporous balloon catheter (1×10^6 pores/mm^2 with sizes ranging from 0.2-0.8 micron).
The preclinical animal testing was performed in accordance with the NIH Guide for Care and Use of Laboratory Animals. Domestic swine were utilized to evaluate effect of the drug on the inhibition of the neointimal formation. Each testing procedure, excluding the angiographic analysis at the follow-up endpoints, was conducted using sterile techniques. During the study procedure, the activated clotting time (ACT) was monitored regularly to ensure appropriate anticoagulation. Base line blood samples were collected for each animal before initiation of the procedure. Quantitative coronary angiographic analysis (QCA) and intravascular ultrasound (IVUS) analysis was used for vessel size assessment.
The vessels at the sites of the delivery were denuded by inflation of the PTCA balloons to 1:1 balloon to artery ratio and moving the balloons back and forth 5 times. The drug was delivered to the denuded sites at 3.5 atm (3.61 Kg/sq cm) for 2 minutes using the microporous balloon catheters before stent deployment. The average volume of delivery was about 3.3+/−1.2 ml. Following drug delivery, stents were deployed at the delivery site such that final stent to artery ratio was 1.1:1.
QCA and IVUS analyses were used for stent deployment guidance. Pre-stenting IVUS measurements of the lumen size at the targeted vessel sites were performed for determination of the balloon (size) inflation pressure. Quantitative analysis of the stented coronary arteries to compare pre-stenting, post-stenting, follow-up minimal luminal diameters, stent recoil, and balloon/stent to artery ratio were performed. Following stent implantation and final angiogram, all devices were withdrawn and the wounds closed; the animals were allowed to recover from anesthesia as managed by the attending veterinarian or animal care professionals at the research center.
Upon return to the research laboratory at the 28-day endpoint, angiographic assessments were performed. Coronary artery blood flow was assessed and the stented vessels were evaluated to determine minimal lumen diameter. The animals were euthanized following this procedure at the endpoint. Following euthanasia, the hearts were pressure perfusion fixed with formalin and prepared for histological analysis, encompassing light microscopy, and morphometry. Morphometric analysis of the stented arteries included assessment of the position of the stent struts and determination of vessel/lumen areas, percent (%) stenosis, injury scores, intimal and medial areas and intima/media ratios. Percent stenosis is quantitated by the following equation: 100(IEL area−lumen area)/IEL area
where IEL is the internal elastic lamia.
The control group of animals received delivery of water instead of the drug. The test group of animals received actinomycin D in two different concentration of 10^−5M and 10^−4M. […] FIGS. 9A and 9B illustrate sample pictures of the histology slides of the coronary vessels from the control and the Dose 1 group, respectively.

[3] = tested on: porcine coronary arteries; assay: Positive remodeling: actinomycin D/EVOH coated stents in porcine coronary arteries, 28 days; type: in vivo
From the text: In vivo data is provided illustrated positive remodeling caused by the application of actinomycin D. Stents coated with EVOH impregnated with actinomycin D and a control group of stents coated with EVOH free from actinomycin D were implanted in porcine coronary arteries. The animals were sacrificed at the end of 28 days. […] The index of remodeling was 1.076 (8.54/7.94).
FIGS. 10A and 10B illustrate sample pictures of the histology slides of the coronary vessels from the control group 64 RCA (Right Coronary […]) and the actinomycin D loaded stent group 68 LAD (Left Anterior Descending), respectively. The stent used was an Advanced Cardiovascular Systems Multi-Link Duet™ (stainless steel). As is illustrated by FIG. 10B, the positive remodeling of EEL 80, caused by the application of actinomycin D, creates a gap between stent struts 82 and EEL 80. Thrombus deposits, illustrated by reference number 84, are formed in the gap over time. The use of a self-expandable stent eliminates the formation of the gap as the stent self-expands in response to the positive remodeling of IEL. Thrombus deposits can be, accordingly, eliminated.
Actinomycin D induces the positive remodeling of the vessel walls, more particularly positive remodeling of the external elastic lamina (EEL) of a blood vessel wall. Positive remodeling is generally defined as the ability of the vessel walls to structurally adapt, by increasing in lumen size, to chronic stimuli. A positively remodeled lumen wall has a greater diameter or size as compared to a lumen wall which has not been subjected to the remodeling effect. Accordingly, the flow of blood through the remodeled site is increased—flow which would have otherwise been reduced because of, for example, the presence of plaque build-up or migration and proliferation of cells. The index of remodeling is defined by the ratio of the area circumscribed by the EEL of the lesion site to the area circumscribed by the EEL of a reference site. As a result of the positive remodeling of the EEL, the internal elastic lamina (IEL), in response, can also increases in area or diameter. Actinomycin D, or analogs or derivative thereof, not only can inhibit abnormal or inappropriate migration and/or proliferation of smooth muscle cells, which can lead to restenosis, but can also induce positive remodeling of the blood vessel walls. Thus the widening of the diseased region becomes more pronounced.

[4] = 24 hour elution of vinblastine from EVOH coated stents in phosphated saline solution, HPLC; type: physicochemical; conditions: for Total microgram Released / microgram Release per Hour / microgram Released: Unsterilized stent
Experimental: Multi-Link™ stents were cleaned by placement in an ultrasonic bath of isopropyl alcohol solution for 10 minutes. The stents were dried and plasma cleaned in a plasma chamber. An EVOH solution was made with 1 gram of EVOH and 7 grams of DMSO, making an EVOH:DMSO ratio of 1:7. Vinblastine was added to the 1:7 EVOH:DMSO solution. Vinblastine constituted 2.5% by weight of the total weight of the solution. The solution was vortexed and placed in a tube. The cleaned Multi-Link™ stents were attached to mandrel wires and dipped into the solution. The coated stents were passed over a hot plate, for about 3-5 seconds, with a temperature setting of about 60° C. The coated stents were cured for 6 hours in an air box then placed in a vacuum oven at 60° C. for 24 hours. The above process was repeated twice, having a total of three layers. The average weight of the coating was 0.00005 gram, with an estimated vinblastine concentration of 12 microgram per stent. Some of the stents were sterilized by electron beam radiation. The sterilized and unsterilized vinblastine coated stents were tested for a 24 hour elution period by placing one sterilized and one unsterilized stent in 5 ml of phosphated saline solution (pH 7.4) at room temperature with rotational motion. The amount of vinblastine eluted was evaluated by High Performance Liquid Chromatography (HPLC) analysis. The results of this test are given below and plotted in FIG. 7.

[5] = 2 hours drug exposure, scrape wounded SMC monolayers, passage 3-4
[6] = average of vessel sections, 28 days
[7] = individual vessel sections (ID # animal, artery, d/m/p), 28 days
[8] = Sterilized stent, Time 0.5 Hours
[9] = Sterilized stent, Time 24 Hours

Compound: CC(=O)O[C@@]12CO[C@@H]1C[C@H](O)[C@@]1(C)C(=O)[C@H](O)C3=C(C)[C@@H](OC(=O)[C@H](O)[C@@H](NC(=O)OC(C)(C)C)c4ccccc4)C[C@@](O)([C@@H](OC(=O)c4ccccc4)[C@H]21)C3(C)C [docetaxel]
- pIC50 [1, 5]: 6.00

Compound: Cc1c2oc3c(C)ccc(C(=O)N[C@@H]4C(=O)N[C@H](C(C)C)C(=O)N5CCC[C@H]5C(=O)N(C)CC(=O)N(C)[C@@H](C(C)C)C(=O)O[C@@H]4C)c3nc-2c(C(=O)N[C@@H]2C(=O)N[C@H](C(C)C)C(=O)N3CCC[C@H]3C(=O)N(C)CC(=O)N(C)[C@@H](C(C)C)C(=O)O[C@@H]2C)c(N)c1=O [actinomycin D] (I: T[dV]P[Sar][NMeV] / II: T[dV]P[Sar][NMeV]; ester I:1-I:C, II:1-II:C; linker I:N-II:N via Actinocin(9to1))
- pIC50 ([1]; 2 h): 9.00
- Percent Diameter Stenosis (QCA) ([2]; DOSE 1 1E−05M (n = 10)): 36.8 +/− 9.7%
- Percent Diameter Stenosis (QCA) ([2]; DOSE 2 1E−04M (n = 7)): 32.3+/−11.7%
- Percent Stenosis (IEL area-lumen area)/IEL area ([2]; DOSE 1 1E−05M (n = 30)): 51.8 +/− 13.8%
- Residual Lumen (Lumen area)/IEL area ([2]; DOSE 1 1E−05M (n = 30)): 0.49 +/− 0.14
- Percent Stenosis (IEL area-lumen area)/IEL area ([2]; DOSE 2 1E−04M (n = 21)): 54.1 +/− 11.7%
- Residual Lumen (Lumen area)/IEL area ([2]; DOSE 2 1E−04M (n = 21)): 0.46 +/− 0.08
- AVG % EEL growth ([3]; ActD vs EVOH): 7.486%
- AVG % IEL growth ([3]; ActD vs EVOH): 13.18%
- index of remodeling ([3]; EEL area drug coated / EVOH control (8.54/7.94), 28 days): 1.076
- EEL Area AVG [3, 6]: 8.5425 mm^2
- IEL Area AVG [3, 6]: 7.4727 mm2
- EEL Area [3, 7]: 9.2545 mm^2 and 9.2515 mm^2 and 8.7854 mm^2 and 9.5164 mm^2 and 9.1504 mm^2 and 9.6679 mm^2 and 9.1237 mm^2 and 9.9849 mm^2 and 9.4765 mm^2 and 7.4424 mm^2 and 9.1462 mm^2 and 8.9504 mm^2 and 8.9117 mm^2 and 8.7533 mm^2 and 7.3249 mm^2 and 7.1061 mm^2 and 8.5830 mm^2 and 7.4498 mm^2 and 8.2509 mm^2 and 7.7342 mm^2 and 7.9207 mm^2 and 6.9926 mm^2 and 8.3883 mm^2 and 7.8546 mm^2
- IEL Area [3, 7]: 8.3785 mm2 and 8.5819 mm2 and 8.0964 mm2 and 8.6879 mm2 and 8.0914 mm2 and 8.7181 mm2 and 8.0273 mm2 and 8.5222 mm2 and 8.3796 mm2 and 6.4219 mm2 and 7.7757 mm2 and 7.5392 mm2 and 7.6573 mm2 and 6.9749 mm2 and 6.2815 mm2 and 5.9760 mm2 and 7.6195 mm2 and 6.3785 mm2 and 7.5206 mm2 and 6.9992 mm2 and 6.9632 mm2 and 6.0418 mm2 and 7.4794 mm2 and 6.2324 mm2

Compound: CO[C@@]12[C@H](COC(N)=O)C3=C(C(=O)C(C)=C(N)C3=O)N1C[C@@H]1N[C@@H]12 [mitomycin]
- pIC50 [1, 5]: 4.30

Compound: CC[C@]1(O)C[C@@H]2CN(CCc3c([nH]c4ccccc34)[C@@](C(=O)OC)(c3cc4c(cc3OC)N(C)[C@H]3[C@@](O)(C(=O)OC)[C@H](OC(C)=O)[C@]5(CC)C=CCN6CC[C@]43[C@@H]65)C2)C1 [Vinblastine]
- μg Release ([4]; Sterilized (electron beam) stent, Time 0 Hours): 0 µg
- Total μg Released ([4]; Sterilized stent, Time 0 Hours): 0 µg
- μg Release per Hour ([4]; Sterilized stent, Time 0 Hours): 0 μg per Hour
- Total μg Released [4, 8]: 2.14 µg
- μg Release [4, 8]: 2.14 µg
- μg Release per Hour [4, 8]: 4.28 μg per Hour
- Total μg Released ([4]; Sterilized stent, Time 3 Hours): 3.84 µg
- μg Release ([4]; Sterilized stent, Time 3 Hours): 1.7 µg
- μg Release per Hour ([4]; Sterilized stent, Time 3 Hours): 0.68 μg per Hour
- Total μg Released ([4]; Sterilized stent, Time 4 Hours): 4.12 µg
- μg Release ([4]; Sterilized stent, Time 4 Hours): 0.28 µg
- μg Release per Hour ([4]; Sterilized stent, Time 4 Hours): 0.28 μg per Hour
- Total μg Released ([4]; Sterilized stent, Time 6 Hours): 4.38 µg
- μg Release ([4]; Sterilized stent, Time 6 Hours): 0.26 µg
- μg Release per Hour ([4]; Sterilized stent, Time 6 Hours): 0.13 μg per Hour
- Total μg Released [4, 9]: 6.43 µg
- μg Release [4, 9]: 2.05 µg
- μg Release per Hour [4, 9]: 0.11 μg per Hour
- Total microgram Released ([4]; Time 0 Hours): 0 microgram
- microgram Release per Hour ([4]; Time 0 Hours): 0 microgram per Hour
- microgram Released ([4]; Time 0 Hours, pH 7.4, room temperature): 0 microgram
- Total microgram Released ([4]; Time 0.5 Hours): 2.12 microgram
- microgram Release per Hour ([4]; Time 0.5 Hours): 4.24 microgram per Hour
- microgram Released ([4]; Time 0.5 Hours): 2.12 microgram
- Total microgram Released ([4]; Time 3 Hours): 4.03 microgram
- microgram Release per Hour ([4]; Time 3 Hours): 0.76 microgram per Hour
- microgram Released ([4]; Time 3 Hours): 1.91 microgram
- Total microgram Released ([4]; Time 4 Hours): 4.30 microgram
- microgram Release per Hour ([4]; Time 4 Hours): 0.27 microgram per Hour
- microgram Released ([4]; Time 4 Hours): 0.27 microgram
- Total microgram Released ([4]; Time 6 Hours): 4.68 microgram
- microgram Release per Hour ([4]; Time 6 Hours): 0.19 microgram per Hour
- microgram Released ([4]; Time 6 Hours): 0.38 microgram
- Total microgram Released ([4]; Time 24 Hours): 6.38 microgram
- microgram Release per Hour ([4]; Time 24 Hours): 0.09 microgram per Hour
- microgram Released ([4]; Time 24 Hours): 1.7 microgram
